From patent US20250136650A1, “COMPOSITIONS AND METHODS FOR DNA BINDING AND TRANSCRIPTIONAL REGULATION” (THE UNIVERSITY OF CHICAGO, priority 2021, published 2025)
Entries after “also recorded” stand apart in the source; their conditions may differ.

Legend:
AP-1 site = assay: EMSA, direct binding to AP-1 DNA probe
From the text: The DNA binding dimer STR22 (shown in FIG. 21 and FIG. 27) was synthesized. STR22 was subjected to EMSA to measure binding to either the UPR element (UPRE) or AP-1 binding site (AP-1).
bZIP transcriptional repressors FJSTR7 (shown in FIGS. 42 and 45), FJSTR71 (shown in FIGS. 52 and 53), and FJSTR72 (shown in FIGS. 52 and 54), were generated and tested.
Electrophoretic Mobility Shift Assays (EMSAs): For direct DNA binding experiments, STRs were serially diluted at 10× concentration in water and then 1 μL of STR solution was added to 9 μL of 5 nM IRD700-labeled DNA probe bearing either a UPRE or AP-1 motif in a final 1×binding buffer (20 mM HEPES pH 8.0, 150 mM NaCl, 5% glycerol, 1 mM EDTA, 2 mM MgCl2, 0.5 mg/mL BSA, 1 mM DTT, 0.05% NP-40). Samples were incubated for 1 hr at RT. 5 μL of each reaction was loaded on an 8% acrylamide, 0.5×TBE gel equilibrated to 4° C. Samples were resolved for 60 min at 110 V and 4° C. with 0.5×TBE+1 mM MgCl2 running buffer. Gels were pre-run at 110 V for 15 min prior to sample loading. For competition experiments, 30 or 60 nM STRs and 5 nM labeled UPRE probe were incubated with 0, 7.8, 13, 21.6, 36, 60 or 100 nM unlabeled competitor oligo for 1 hr at RT. […] ImageJ was used to quantify band intensity and the fraction of bound DNA was calculated by dividing the band intensity of bound DNA by the band intensity of free DNA from the vehicle treated lane. […]

HIF1α = assay: ChIP-qPCR of HIF1α binding to HRE-containing genes; type: cell-based, human; conditions: hypoxia 1% O2 6 hours, 20 μM 24 hours
Description: Chromatin Immunoprecipitation (ChIP): For XBP1s-ChIP experiments, 3×10^6 HeLa cells were transfected with 1 μg of either the control or Flag-XBP1s vector for 4 hrs and then followed by 20 μM STR22. For hypoxia response experiments, 10×10^6 HeLa cells were treated with 20 μM STR22 for 24 hrs, followed by an additional 6 hrs under 1% 02. At the end of all treatments, cells were crosslinked with 1% formaldehyde for 10 min at 37° C. and then quenched with 125 mM glycine for 1 min. Cells were sheared in buffer containing: 0.1% SDS, 50 mM Tris-HCl (pH 7.6), 1 mM EDTA (pH8.0), 0.002% Triton X-100, supplemented with PMSF (Roche, 10837091001) and protease inhibitor (Roche, 11836170001). Lysates were sonicated with a Bioruptor for a total of 4 cycles for ChIP-qPCR, or 40 cycles for ChIP-sequencing (30 sec on/30 sec off each cycle). Sonicated chromatin was incubated with antibodies overnight at 4° C. Antibodies used: HIF1α (Novis Biologicals, NB100-479), normal rabbit serum (Jackson Immunoresearch, 011-000-001), Flag (Sigma, F1804-200UG), mouse IgG conjugated with Dynabeads Protein A (Life Technologies, 10001D)+G (Invitrogen, 10003D). […]

MDA-MB-231 cells [1] = assay: Trypan blue cell viability; type: cell-based, human; conditions: MDA-MB231, 20 μM, 24 hours
From the text: Trypan Blue Cell Viability Assay. […] The cell suspension was then collected and subjected for trypan blue viability reading using trypan blue cell viability analyzer (Beckman Coulter Vi-CELL XR).

MDA-MB-231 cells [2] = assay: Relative cell growth, MDA-MB-231; type: cell-based, human
Description: Trypan Blue Cell Viability Assay. MDA-MB-231 cells were treated with DMSO or […] STR22 every 24 hours for 24 hours (FIG. 104A) or 120 hours (FIG. 104B) under 1% 02 and then trypsinized for 5 minutes at 37° C., 5% CO2, 1% 02 and then quenched with a double volume of DMEM media. The cell suspension was then collected and subjected for trypan blue viability reading using trypan blue cell viability analyzer (Beckman Coulter Vi-CELL XR).

MDA-MB-231 cells [3] = assay: Boyden chamber invasion, MDA-MB-231; type: cell-based, human; conditions: MDA-MB-231, 20 μM, 24 hours, hypoxia
Description: Boyden Chamber Invasion Assay. Each Boyden chamber membrane (Fisher Scientific, 353097) was coated with a thin layer of Basement Membrane Extract (BME, 200 μl of 0.25 mg/ml stock; 50 μg total BME per membrane) and incubated at 37° C. for 1 hr. Cells were trypsinized, neutralized in 10% FBS DMEM media, and centrifuged at 500×g for 5 min followed by two rounds of PBS washes to remove remaining serum-containing media. Cells were then resuspended in serum-free media and diluted to the desired concentration for plating onto the Boyden chamber. 1×10^6 MDA-MB-231 cells in 300 μL serum-free media were plated on each Boyden chamber. 500 μL of 10% FBS DMEM media was placed in the lower well, acting as the chemoattractant. Serum-free media placed in the lower wells served as negative controls. Treated cells were plated in 20 μM of STR22. After a 24 hr incubation, the membranes were stained with Calcein AM (Fisher Scientific, 354217) for 1 hr at 37° C. to stain for live cells. The tops of the chambers were swabbed to remove remaining cells, and cells on the bottom of the chamber were dissociated from the membrane by incubating in cell dissociated buffer (R&D Systems, 3455-05-03) in a shaker at 37° C. for 1 hr. Calcein AM signal was measured in Perkin Elmer Victor X3 plate reader as a read-out of invaded cells.

Substance: XBP1-derived stapled dimer: RRK^KNR^AAQTARDRKKA#LSELEQQVVDLE linked to RRK^KNR^AAQTARDRKKARLSEL#QQVVDLE; FIG. 27 [STR22]
- binding to control AP1 motif oligonucleotide (AP-1 site): undetectable binding
- HIF1α binding at HRE target genes (ChIP-qPCR) (HIF1α): almost completely blocked HIF1α binding; also recorded: abrogated HIF1α binding
- cell viability (MDA-MB-231 cells [1]): did not impact cell viability
- cell growth under hypoxic conditions (MDA-MB-231 cells [2]): significantly slowed cell growth
- proliferation under normoxic conditions (MDA-MB-231 cells [2]): little effect on the proliferation
- cell invasion (MDA-MB-231 cells [3]): significantly inhibited cell invasion
